Measured values from US20020052295A1, “Diacyl derivatives of propylene diamine having herbicidal activity” (priority 1999, published 2002).

What was measured:
ABUTH [1] = assay: Pre-emergence herbicidal activity on ABUTH (velvetleaf); type: in vivo, Abutilon theophrasti; conditions: lowest tested rate giving 80% or greater inhibition, approx. 14 days after planting and treating, greenhouse
How it was run: (§1)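 GR80 derived from percent inhibition rated ~14 days after sowing. Compound sprayed pre-emergence onto soil in 50:50 acetone/water; rates typically up to 1000 g/ha.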

SOLNI [2] = assay: Pre-emergence herbicidal activity on SOLNI (black nightshade); type: in vivo, Solanum nigrum; conditions: lowest tested rate giving 80% or greater inhibition, approx. 14 days after planting and treating, greenhouse
How it was run: as §1

AMARE [3] = assay: Pre-emergence herbicidal activity on AMARE (redroot pigweed); type: in vivo, Amaranthus retroflexus; conditions: lowest tested rate giving 80% or greater inhibition, approx. 14 days after planting and treating, greenhouse
How it was run: as §1

DATST [4] = assay: Pre-emergence herbicidal activity on DATST (jimsonweed); type: in vivo, Datura stramonium; conditions: lowest tested rate giving 80% or greater inhibition, approx. 14 days after planting and treating, greenhouse
How it was run: as §1

CHEAL [5] = assay: Pre-emergence herbicidal activity on CHEAL (common lambsquarters); type: in vivo, Chenopodium album; conditions: lowest tested rate giving 80% or greater inhibition, approx. 14 days after planting and treating, greenhouse
How it was run: as §1

CONAR [6] = assay: Pre-emergence herbicidal activity on CONAR (field bindweed); type: in vivo, Convolvulus arvensis; conditions: lowest tested rate giving 80% or greater inhibition, approx. 14 days after planting and treating, greenhouse
How it was run: as §1

POROL [7] = assay: Pre-emergence herbicidal activity on POROL (common purslane); type: in vivo, Portulaca oleracea; conditions: lowest tested rate giving 80% or greater inhibition, approx. 14 days after planting and treating, greenhouse
How it was run: as §1

CIRAR [8] = assay: Pre-emergence herbicidal activity on CIRAR (canada thistle, seedling); type: in vivo, Cirsium arvense; conditions: lowest tested rate giving 80% or greater inhibition, approx. 14 days after planting and treating, greenhouse
How it was run: as §1

ECHCG [9] = assay: Pre-emergence herbicidal activity on ECHCG (barnyardgrass); type: in vivo, Echinochloa crus-galli; conditions: lowest tested rate giving 80% or greater inhibition, approx. 14 days after planting and treating, greenhouse
How it was run: as §1

PANMI [10] = assay: Pre-emergence herbicidal activity on PANMI (wild proso millet); type: in vivo, Panicum miliaceum; conditions: lowest tested rate giving 80% or greater inhibition, approx. 14 days after planting and treating, greenhouse
How it was run: as §1

SORHA [11] = assay: Pre-emergence herbicidal activity on SORHA (johnsongrass, seedling); type: in vivo, Sorghum halepense; conditions: lowest tested rate giving 80% or greater inhibition, approx. 14 days after planting and treating, greenhouse
How it was run: as §1

SETFA [12] = assay: Pre-emergence herbicidal activity on SETFA (giant foxtail); type: in vivo, Setaria faberi; conditions: lowest tested rate giving 80% or greater inhibition, approx. 14 days after planting and treating, greenhouse
How it was run: as §1

PANDI [13] = assay: Pre-emergence herbicidal activity on PANDI (fall panicum); type: in vivo, Panicum dichotomiflorum; conditions: lowest tested rate giving 80% or greater inhibition, approx. 14 days after planting and treating, greenhouse
How it was run: as §1

SORVU [14] = assay: Pre-emergence herbicidal activity on SORVU (shattercane); type: in vivo, Sorghum vulgare; conditions: lowest tested rate giving 80% or greater inhibition, approx. 14 days after planting and treating, greenhouse
How it was run: as §1

BRAPP [15] = assay: Pre-emergence herbicidal activity on BRAPP (broadleaf signalgrass); type: in vivo, Brachiaria platyphylla; conditions: lowest tested rate giving 80% or greater inhibition, approx. 14 days after planting and treating, greenhouse
How it was run: as §1

DIGSA [16] = assay: Pre-emergence herbicidal activity on DIGSA (large crabgrass); type: in vivo, Digitaria sanguinalis; conditions: lowest tested rate giving 80% or greater inhibition, approx. 14 days after planting and treating, greenhouse
How it was run: as §1

ABUTH [17] = assay: Post-emergence herbicidal activity on ABUTH (velvetleaf); type: in vivo, Abutilon theophrasti; conditions: post-emergence spray; lowest tested rate with 80% or greater inhibition; about 14 days after treatment
Excerpt: (§2) All such uses, and the biological activity enabling such uses, are embraced by the term “herbicidal” herein. Tables 15 and 16 summarize results of tests conducted as described below to determine the pre-emergence herbicidal activity, in the form of a GR80 value, of illustrative compounds of this invention. […] Where herbicidal activity was evident but 80% inhibition was not achieved at the highest rate tested (typically 1000 g/ha), an asterisk (*) is shown in the following tables. Herbicidal activity evident in the form of symptoms of phytotoxicity, in the absence of at least 80% inhibition at any rate, is indicated in the tables by “phyto”. A blank cell in the following tables indicates no herbicidal or phytotoxic response at any rate tested.
(§3) In another set of tests, the post-emergence activity of compounds of this invention was evaluated on the cool season species listed above. The following procedure was used.
(§4) A pre-prepared topsoil mixture (described above) was placed in a pot and compacted to a depth of 1.0 to 1.25 cm from the top of the pot. Seeds of each of several monocotyledonous and dicotyledonous annual plant species were placed on top of the soil The seeds were covered with a mixture of 50% topsoil and 50% Rediearth™ in sufficient quantity to level-fill the pots. The pots were then placed on a greenhouse bench and subirrigated as needed until plants growing from the seeds had emerged and reached a suitable growth stage for post-emergence treatment, typically 9 to 14 days after planting.
(§5) A known amount of each test compound dissolved or suspended in an appropriate organic solvent was diluted with a 50:50 mix of acetone and water and applied to the plants by spraying with a standard spray nozzle in a spray volume of 3,100 l/ha at a spray pressure of […] (30 psig). Control plants were not sprayed.
(§6) After treatment the plants were placed in a greenhouse with a 30/21° C. day/night temperature regime and were subsequently watered as needed for growth. Approximately 14 days after treatment, the plants were observed and herbicidal efficacy recorded as percent inhibition by comparison with control plants.

SOLNI [18] = assay: Post-emergence herbicidal activity on SOLNI (black nightshade); type: in vivo, Solanum nigrum; conditions: post-emergence spray; lowest tested rate with 80% or greater inhibition; about 14 days after treatment
Excerpt: as §2, §3, §4, §5, §6

AMARE [19] = assay: Post-emergence herbicidal activity on AMARE (redroot pigweed); type: in vivo, Amaranthus retroflexus; conditions: post-emergence spray; lowest tested rate with 80% or greater inhibition; about 14 days after treatment
Excerpt: as §2, §3, §4, §5, §6

DATST [20] = assay: Post-emergence herbicidal activity on DATST (jimsonweed); type: in vivo, Datura stramonium; conditions: post-emergence spray; lowest tested rate with 80% or greater inhibition; about 14 days after treatment
Excerpt: as §2, §3, §4, §5, §6

CHEAL [21] = assay: Post-emergence herbicidal activity on CHEAL (common lambsquarters); type: in vivo, Chenopodium album; conditions: post-emergence spray; lowest tested rate with 80% or greater inhibition; about 14 days after treatment
Excerpt: as §2, §3, §4, §5, §6

CONAR [22] = assay: Post-emergence herbicidal activity on CONAR (field bindweed); type: in vivo, Convolvulus arvensis; conditions: post-emergence spray; lowest tested rate with 80% or greater inhibition; about 14 days after treatment
Excerpt: as §2, §3, §4, §5, §6

POROL [23] = assay: Post-emergence herbicidal activity on POROL (common purslane; table head prints PORAL); type: in vivo, Portulaca oleracea; conditions: post-emergence spray; lowest tested rate with 80% or greater inhibition; about 14 days after treatment
Excerpt: as §2, §3, §4, §5, §6

CIRAR [24] = assay: Post-emergence herbicidal activity on CIRAR (canada thistle, seedling); type: in vivo, Cirsium arvense; conditions: post-emergence spray; lowest tested rate with 80% or greater inhibition; about 14 days after treatment
Excerpt: as §2, §3, §4, §5, §6

ECHCG [25] = assay: Post-emergence herbicidal activity on ECHCG (barnyardgrass); type: in vivo, Echinochloa crus-galli; conditions: post-emergence spray; lowest tested rate with 80% or greater inhibition; about 14 days after treatment
Excerpt: as §2, §3, §4, §5, §6

PANMI [26] = assay: Post-emergence herbicidal activity on PANMI (wild proso millet); type: in vivo, Panicum miliaceum; conditions: post-emergence spray; lowest tested rate with 80% or greater inhibition; about 14 days after treatment
SORHA [27] = assay: Post-emergence herbicidal activity on SORHA (johnsongrass, seedling); type: in vivo, Sorghum halepense; conditions: post-emergence spray; lowest tested rate with 80% or greater inhibition; about 14 days after treatment
Excerpt: as §2, §3, §4, §5, §6

SETFA [28] = assay: Post-emergence herbicidal activity on SETFA (giant foxtail); type: in vivo, Setaria faberi; conditions: post-emergence spray; lowest tested rate with 80% or greater inhibition; about 14 days after treatment
Excerpt: as §2, §3, §4, §5, §6

PANDI [29] = assay: Post-emergence herbicidal activity on PANDI (fall panicum); type: in vivo, Panicum dichotomiflorum; conditions: post-emergence spray; lowest tested rate with 80% or greater inhibition; about 14 days after treatment
Excerpt: as §2, §3, §4, §5, §6

SORVU [30] = assay: Post-emergence herbicidal activity on SORVU (shattercane); type: in vivo, Sorghum vulgare; conditions: post-emergence spray; lowest tested rate with 80% or greater inhibition; about 14 days after treatment
Excerpt: as §2, §3, §4, §5, §6

BRAPP [31] = assay: Post-emergence herbicidal activity on BRAPP (broadleaf signalgrass); type: in vivo, Brachiaria platyphylla; conditions: post-emergence spray; lowest tested rate with 80% or greater inhibition; about 14 days after treatment
Excerpt: as §2, §3, §4, §5, §6

DIGSA [32] = assay: Post-emergence herbicidal activity on DIGSA (large crabgrass); type: in vivo, Digitaria sanguinalis; conditions: post-emergence spray; lowest tested rate with 80% or greater inhibition; about 14 days after treatment

Row | Structure (SMILES) | Pre-emergence activity (GR80) on SOLNI (SOLNI [2]) | Pre-emergence activity (GR80) on AMARE (AMARE [3]) | Pre-emergence activity (GR80) on DATST (DATST [4]) | Pre-emergence activity (GR80) on CHEAL (CHEAL [5]) | Pre-emergence activity (GR80) on PORAL (POROL [7]) | Pre-emergence activity (GR80) on CIRAR (CIRAR [8]) | Pre-emergence activity (GR80) on SETFA (SETFA [12]) | Pre-emergence activity (GR80) on PANDI (PANDI [13]) | Pre-emergence activity (GR80) on BRAPP (BRAPP [15]) | Pre-emergence activity (GR80) on DIGSA (DIGSA [16]) | Post-emergence activity (GR80) ABUTH (ABUTH [17]) | Post-emergence activity (GR80) SOLNI (SOLNI [18]) | Post-emergence activity (GR80) AMARE (AMARE [19]) | Post-emergence activity (GR80) DATST (DATST [20]) | Post-emergence activity (GR80) CHEAL (CHEAL [21]) | Post-emergence activity (GR80) CONAR (CONAR [22]) | Post-emergence activity (GR80) PORAL (POROL [23]) | Post-emergence activity (GR80) CIRAR (CIRAR [24]) | further results
1 | CC(CNC(=O)c1cccc(C(F)(F)F)c1)NC(=O)c1cccc(F)c1F (centres unmarked) [Example 34] | 250 g/ha | 125 g/ha | 250 g/ha | 125 g/ha | 125 g/ha | 125 g/ha | 250 g/ha | 125 g/ha | 250 g/ha | 125 g/ha | phyto | phyto | 750 g/ha | 750 g/ha | * (Where herbicidal activity was evident but 80% inhibition was not achieved at the highest rate tested (typically 1000 g/ha), an asterisk (*) is shown) | * (Where herbicidal activity was evident but 80% inhibition was not achieved at the highest rate tested (typically 1000 g/ha), an asterisk (*) is shown) | 250 g/ha | 1000 g/ha | Pre-emergence activity (GR80) on ABUTH (ABUTH [1]): 500 g/ha; Pre-emergence activity (GR80) on CONAR (CONAR [6]): 750 g/ha; Pre-emergence activity (GR80) on ECHCG (ECHCG [9]): 1000 g/ha; Pre-emergence activity (GR80) on PANMI (PANMI [10]): 250 g/ha; Pre-emergence activity (GR80) on SORHA (SORHA [11]): 750 g/ha; Pre-emergence activity (GR80) on SORVU (SORVU [14]): phyto
2 | C[C@H](CNC(=O)c1cccc(C(F)(F)F)c1)NC(=O)Oc1ccc(Cl)cc1 [Example 231] | phyto | 750 g/ha | phyto | phyto | phyto | phyto | phyto | phyto | phyto | 1000 g/ha | [empty] | [empty] | phyto | * (Where herbicidal activity was evident but 80% inhibition was not achieved at the highest rate tested (typically 1000 g/ha), an asterisk (*) is shown) | phyto | phyto | phyto | [empty] | Post-emergence activity (GR80) ECHCG (ECHCG [25]): [empty]; Post-emergence activity (GR80) PANMI (PANMI [26]): [empty]; Post-emergence activity (GR80) SORHA (SORHA [27]): phyto; Post-emergence activity (GR80) SETFA (SETFA [28]): [empty]; Post-emergence activity (GR80) PANDI (PANDI [29]): phyto; Post-emergence activity (GR80) SORVU (SORVU [30]): phyto; Post-emergence activity (GR80) BRAPP (BRAPP [31]): [empty]; Post-emergence activity (GR80) DIGSA (DIGSA [32]): phyto
